According to paper PMC9697614, “Rufinamide, a Triazole-Derived Antiepileptic Drug, Stimulates Ca^2+-Activated K^+ Currents While Inhibiting Voltage-Gated Na^+ Currents” (International Journal of Molecular Sciences, 2022):

Molecular target: T1, large-conductance Ca2+-activated K+ channel (BKCa, KCa1.1, KCNMA1, Slo1) (Rattus norvegicus, UniProt Q62976)
T1 construct: native channel in pituitary GH3 cells
Experiment: patch clamp: inside-out single-channel recordings (RFM on cytosolic face) and whole-cell IK(Ca) concentration-response
Format: cell-based

T1 sequence (Q62976 whole entry): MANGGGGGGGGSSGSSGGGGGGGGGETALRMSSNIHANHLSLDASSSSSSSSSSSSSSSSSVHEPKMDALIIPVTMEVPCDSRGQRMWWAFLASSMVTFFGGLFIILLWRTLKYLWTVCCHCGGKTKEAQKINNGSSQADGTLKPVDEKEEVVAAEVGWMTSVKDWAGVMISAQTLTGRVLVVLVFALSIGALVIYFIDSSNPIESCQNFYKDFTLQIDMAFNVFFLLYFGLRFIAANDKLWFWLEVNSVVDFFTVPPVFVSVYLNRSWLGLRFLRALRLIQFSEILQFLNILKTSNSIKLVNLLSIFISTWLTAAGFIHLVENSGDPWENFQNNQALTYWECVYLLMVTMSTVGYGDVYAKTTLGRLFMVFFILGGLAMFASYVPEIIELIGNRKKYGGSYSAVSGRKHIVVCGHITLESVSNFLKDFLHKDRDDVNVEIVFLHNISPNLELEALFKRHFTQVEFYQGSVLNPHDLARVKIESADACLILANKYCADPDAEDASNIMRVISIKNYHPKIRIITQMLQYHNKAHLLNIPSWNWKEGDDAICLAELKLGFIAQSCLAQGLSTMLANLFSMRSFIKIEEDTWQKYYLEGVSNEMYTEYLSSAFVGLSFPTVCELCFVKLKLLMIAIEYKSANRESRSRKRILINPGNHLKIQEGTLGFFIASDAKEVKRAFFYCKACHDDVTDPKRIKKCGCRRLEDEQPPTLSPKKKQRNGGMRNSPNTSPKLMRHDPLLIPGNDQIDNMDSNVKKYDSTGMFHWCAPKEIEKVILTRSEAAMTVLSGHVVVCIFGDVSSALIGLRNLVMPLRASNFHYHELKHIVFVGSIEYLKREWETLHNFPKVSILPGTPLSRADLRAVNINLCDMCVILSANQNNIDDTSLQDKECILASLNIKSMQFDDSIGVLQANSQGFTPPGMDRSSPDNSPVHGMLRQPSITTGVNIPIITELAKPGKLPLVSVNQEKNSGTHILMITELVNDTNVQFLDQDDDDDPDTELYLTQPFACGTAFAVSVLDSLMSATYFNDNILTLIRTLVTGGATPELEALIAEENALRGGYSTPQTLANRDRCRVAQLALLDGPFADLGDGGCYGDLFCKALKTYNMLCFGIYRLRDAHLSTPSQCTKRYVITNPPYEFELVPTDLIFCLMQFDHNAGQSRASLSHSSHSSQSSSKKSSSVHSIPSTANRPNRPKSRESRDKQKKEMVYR

NC(=O)c1cn(Cc2c(F)cccc2F)nn1 [RFM, 1-((2,6-difluorophenyl)methyl)-1H-1,2,3-triazole-4carboxamide]
EC50: 3.9 µM
